Tests used:
[1] = Serum mycophenolic acid levels in Ldlr−/− mice by commercial assay; assay type: in vivo
Description: (§1) Diet W will be formulated with CellCept® incorporated directly into the chow, at concentrations of 0.04%, 0.08% or 0.26% mycophenolate mofetil by weight. When administered in this way, the mice will be expected to consume 15 mg/kg/day (“low dose”), 30 mg/kg/day (“low dose”), or 100 mg/kg/day (“high-dose”) of the drug. Mice will be sacrificed 12 weeks after feeding on the study diet, and the endpoints determined.
No MPA was detected in the serum of control mice (data not shown).

male Ldlr−/− mice [2] = assay: Atherosclerosis in Ldlr−/− (LDLRKO) mice on Western-type diet: percentage of aortic sinus occluded by plaque; assay type: in vivo; conditions: 12 weeks; for reduction of atherosclerosis (AS): male Ldlr−/− mice; for percentage of aortic sinus occluded by plaque: control 16%
Excerpt: (§2) This example illustrates the effect of low-dose MMF on mice lacking the low-density lipoprotein receptor B6.129S7-Ldlrtm1Her/J (hereinafter referred to as LDLRKO mice) obtained from Jackson Labs. When placed on a high-fat, high-cholesterol “Western-type” diet, these mice develop severe atherosclerosis (Ishibashi et al., 1994, J Clin Invest. 93(5):1885-93).
as §1
The primary endpoint will be evaluated using histological analysis of plaque area at the aortic root. The total lesion area in oil red O-stained cryostat sections of the aortic root is quantified using a Leica image analysis system. Mean lesion area (as a percentage of aortic cross-sectional area) is calculated from 10 oil red O-stained sections, beginning at the appearance of the tricuspid valves.
(§3) Plaque composition is analysed as a secondary endpoint using oil red O staining (for lipid content—see above), Movat's pentachrome staining (for lesion complexity including extracellular matrix and glycosaminoglycans), and haematoxylin and eosin (for macrophage content). The average atherosclerotic area is compared between the groups using the two-way ANOVA test. Additional secondary endpoints will be plasma levels of total cholesterol, HDL cholesterol, LDL cholesterol, triglycerides, and glucose, as well as en face visualization of the thoracic and abdominal aortas stained with oil red O.
Low-dose therapy (15 mg/kg/day, a dosage equivalent to approximately 1 gram per day in a 70 kg human) reduced AS by 31% (from 16% to 11% of the sinus) whereas high-dose therapy reduced AS by 61% (from 16% to 6.2%). The response was dose-dependent. Quantification was performed by a single, trained observer blinded to treatment group.

male Ldlr−/− mice [3] = assay: Serum lipids (triglycerides, phospholipids, HDL) in Ldlr−/− mice on Western-type diet; assay type: in vivo; conditions: for serum phospholipid (PPL) levels: control 1078+91 mg/dL; for serum triglyceride (Tgs) levels: control 1198+137 mg/dL
Excerpt: as §2, §1, §3
The response was dose-dependent. Quantification was performed by a single, trained observer blinded to treatment group. Mouse groups are the same as for FIG. 1.
Importantly, levels of serum HDL-cholesterol are not lowered by MMF treatment. Quantification was performed by a single, trained observer blinded to treatment group. Mouse groups are the same as for FIG. 1.

[4] = tested on: male New Zealand White (NZW) rabbits; assay: High-cholesterol New Zealand White rabbit model of atherogenesis (Example 2); assay type: in vivo; conditions: 1 or 5 mg/kg by gastric gavage daily, 12 weeks
Description: This example illustrates the use of low dose MMF in the treatment of a rabbit model of atherogenesis.
Study Design: Studies are done in 30 male New Zealand White (NZW) rabbits weighing 1.0-1.5 kg at the beginning of the experiment. After obtaining baseline blood samples, rabbits are fed ad libitum a 1% cholesterol diet for 12 weeks. This diet is prepared by dissolving cholesterol (Sigma, St. Louis, Mo.) in 100% ethanol at a temperature of 60° C., mixing this solution with standard rabbit chow (Purina), and allowing the complete evaporation of the ethanol.
The rabbits are divided into three groups and treated as follows: (1) CHOL+MMF (extra-low) group (n=10) receives by gastric gavage 5 mg/kg of MMF in 0.4 ml of water; (2) CHOL+MMF (ultra-low) group (n=10) receives by gastric gavage 1 mg/kg of MMF in 0.4 ml of water; and (3) CHOL group (n=10) receives by the same route daily 0.4 ml of water. […] The MMF and vehicle are given daily throughout the 12 experimental weeks.
Blood samples for determination of plasma cholesterol and triglyceride are taken every 2 weeks. […]
Determination of aortic cholesterol content: Lipids are isolated from the aortic segments as described by Folch et al., 1957, J Biol Chem. […]:497-509. […] Cholesterol is determined in the lipid extract by the method of Zlatikis et al., 1953, J Lab Clin Med. 1:486-492. […]

[5] = cited from earlier work
rabbits = conditions: 30 mg/kg/day; cited from earlier work
[6] = high-dose (100 mg/kg/day) in chow

Compound | average serum mycophenolic acid (MPA) level ([1]; high-dose group (MMF 100 mg/kg/day in chow)) [mg/L] | average serum mycophenolic acid (MPA) level ([1]; low-dose group (MMF 15 mg/kg/day in chow)) [mg/L] | reduction of atherosclerosis (AS) (male Ldlr−/− mice [2]; [6]) [%] | percentage of aortic sinus occluded by plaque (male Ldlr−/− mice [2]; [6]) [%] | reduction of atherosclerosis (AS) (male Ldlr−/− mice [2]; low-dose 15 mg/kg/day in chow) [%] | percentage of aortic sinus occluded by plaque (male Ldlr−/− mice [2]; low-dose 15 mg/kg/day in chow) | serum phospholipid (PPL) levels (male Ldlr−/− mice [3]; high-dose (100 mg/kg/day)) | serum triglyceride (Tgs) levels (male Ldlr−/− mice [3]; high-dose (100 mg/kg/day)) | serum phospholipid (PPL) levels (male Ldlr−/− mice [3]; low-dose 15 mg/kg/day) | serum triglyceride (Tgs) levels (male Ldlr−/− mice [3]; low-dose 15 mg/kg/day) | effect on HDL levels (male Ldlr−/− mice [3]; male Ldlr−/− mice, same groups as FIG. 1) | size and severity of the atherosclerotic lesion (intima/media ratio, aortic cholesterol content), expected [4] | solubility in water [5] | effect on atherogenic potential of a high-cholesterol diet (rabbits)
COc1c(C)c2c(c(O)c1C/C=C(\C)CCC(=O)O)C(=O)OC2 [MPA, mycophenolic acid] | 3.65 ± 0.3 | 1.16 ± 0.09 |  |  |  |  |  |  |  |  |  |  |  | 
COc1c(C)c2c(c(O)c1C/C=C(\C)CCC(=O)OCCN1CCOCC1)C(=O)OC2 [mycophenolate mofetil, morpholinoethyl E-6-(1,3-dihydro-4-hydroxy-6-methoxy-7-methyl-3-oxo-5-isobenzofuranyl)-4-methyl-4-hexenoate] |  |  | 61 | 6.2 | 31 | 11 % of the sinus | 696+115 mg/dL | 452+80 mg/dL | 964+87 mg/dL | 994+149 mg/dL | does not appear to affect HDL levels | significantly reduced | insoluble in water | ameliorated the atherogenic potential of a high-cholesterol diet

— patent US8957071B2, “Treatment of vascular, autoimmune and inflammatory diseases using low dosages of IMPDH inhibitors” (Aspreva Pharmaceuticals S.A., priority 2005, dated 2015)
